What was measured:
[1] = LD50 acute toxicity, ddy mice, single abdominal injection; conditions: mouse, in vivo, ip, 5 ddy mice, 14 days observation, Behrens-Koerber's method
From the text: (§1) As used herein, the term "LD50 " denotes the acute toxicity. The term "ED50 " denotes the administered amount needed for reducing the volume of Sarcoma 180 solid tumours in animals to 50% of the corresponding tumour volume in control (untreated) animals. The term "WBC4000 " denotes the minimum dose of the drug needed to reduce the number of peripheral leucocytes to 4000/mm^3. A greater TI value results in a broader tolerance to the drug, which is advantageous for higher anti-tumour activity and decreased toxicity. The term "T" used herein denotes the average survival days of the test animals administered with the test compound. The term "C" denotes the average survival days of the control (untreated) animals. The term "OPD" denotes the dose of the drug resulting in the highest survival ratio. The term "ILS30 " denotes a 30% increase of life-span.
LD50, ED50 and WBC4000 were respectively determined as follows:
Each animal of the test group, consisting of 5 ddy mice, was administered once with a test compound by abdominal injection. […] To determine the LD50 value, Behrens-Koerber's method was applied.

Sarcoma 180 solid tumour = assay: ED50 against Sarcoma 180 solid tumour implanted in mice; assay type: in vivo, male mouse (ddy strain); conditions: for (CI)c: (CI of test compound)/(CI of mitomycin C), CI = LD50/ED50; for ED50: Mus musculus, Sarcoma-180, iv, 168 h, i.v. (tail vein) 24 h after implantation, tumour volume at 7 days, dose for T/C of 0.5
From the text: With regard to the so-called chemotherapeutic index viz. the CI value against sarcoma 180 solid tumour, expressed by the formula: […]
as §1
the term (CI)c denotes (CI of the test compound)/(CI of mitomycin C), and
5×10^6 sarcoma 180 solid tumor cells were abdominally implanted into ddy mice. 7 days after this, ascites cells were sampled. The cells were washed once with a sterilized physiological saline and were used to prepare a cell suspension containing 5×10^7 cells per ml of a sterilized physiological saline. On each occasion, 0.1 ml of the cell suspension was subcutaneously implanted under the skin of the right armpit of a male mouse (ddy strain; body weight 20±2 g). The test compound which was dissolved in a physiological saline with or without addition of Tween 80 was injected into the tail vein of each animal of a group consisting of 5 mice at a dose of 0.1-0.2 ml 24 hours after the implantation of the tumor cells.
The anti-tumor activity was determined in the following manner:
7 days after the implantation, the major axis (a) and the minor axis (b) of the tumour were measured to calculate a value of (a×b^2)/2 which corresponds to the volume of the tumour. The antitumour activity was expressed by the ratio of the volume of the tumour (T) of the group of animals administered with the test compound to the corresponding volume of tumours (C) of the untreated animals.
On graph paper, T/C was plotted on the ordinate using an arithmetic scale and the administered amount of test compound was plotted on the abscissa using a logarithmic scale. The relationship between the dose and T/C was shown by a straight line determined by the method of least squares, from which ED50 viz. a dose corresponding to T/C of 0.5 was obtained.

[2] = test system: lymphocytic Leukemia P-388; assay: Anti-tumour activity against lymphocytic Leukemia P-388 in mice; assay type: in vivo, mouse, female of CDF strain; conditions: for (ILSmax)c: (ILSmax of test compound)/(ILSmax of mitomycin C), ILS=(T-C)/C×100; for (TI)c: (TI of test compound)/(TI of mitomycin C), TI = OPD/dose which results in ILS30; for ED (optimal dose, highest survival) / ED (30% increase of life-span): Mus musculus, P388, ip, i.p. 24 h after implantation; for ED (optimal dose, highest survival): dose resulting in the highest survival ratio, 30 days, read-out: OPD; for ED (30% increase of life-span): read-out: Dose needed to give ILS30
From the text: Also, their therapeutic indexes, expressed by the formula:
TI=(OPD)/(dose which results in ILS30),
against lymphocytic Leukemia P-388 and the maximum increased life spans (ILSmax), defined by the formula: […]
as §1
The experiment was carried out in the following manner. 1×10^6 lymphocytic Leukemia P-388 tumour cells were abdominally implanted into each mouse of a group consisting of 5 mice (body weight about 22 g; female of CDF strain). 24 hours after implantation, a physiological saline solution (0.2 ml) containing the test compound with or without addition of Tween 80 was abdominally given to the test animal.
Table 7 indicates anti-tumour activities of selected Compounds (I) against lyphocytic Leukemia P-388.

tumour = conditions: background statement; cited from earlier work
bone marrow = conditions: background statement; cited from earlier work

In the case of `CCC(CC)NC(=O)SCCNC1=C(C)C(=O)C2=C(C1=O)[C@@H](COC(N)=O)[C@@]1(OC)[C@H]3N[C@H]3CN21` [Compound 11, 7-N--[2-(1-ethylpropyl)aminocarbonylthioethyl]mitomycin C], the LD50 at 336 h [1] is reported as 45 mg/kg, the “(CI)c” value (Sarcoma 180 solid tumour) is reported as 1.40 and the ED50 (Sarcoma 180 solid tumour) is reported as 11.1 mg/kg. The “(ILSmax)c” value [2] was greater than 1.47, the “(TI)c” value [2] was 1.86 and the ED (optimal dose, highest survival) [2] was 25 mg/kg. The ED (30% increase of life-span) [2] was 1.04 mg/kg.
For `CO[C@@]12[C@H](COC(N)=O)C3=C(C(=O)C(C)=C(NCCSC(=O)NC4CCN(Cc5ccccc5)CC4)C3=O)N1C[C@@H]1N[C@@H]12` [Compound 12, 7-N--[2-(1-benzylpiperidine-4-yl)aminocarbonylthioethyl]mitomycin C], the LD50 at 336 h [1] was 37.5 mg/kg, the “(CI)c” value (Sarcoma 180 solid tumour) was 1.61 and the ED50 (Sarcoma 180 solid tumour) was 8.1 mg/kg. The “(ILSmax)c” value [2] was greater than 1.47, the “(TI)c” value [2] was greater than 1.10 and the ED (optimal dose, highest survival) [2] was 12.5 mg/kg. The ED (30% increase of life-span) [2] was less than 0.78 mg/kg.
With `CO[C@@]12[C@H](COC(N)=O)C3=C(C(=O)C(C)=C(NCCSC(=O)NC(COCc4ccccc4)C(C)C)C3=O)N1C[C@@H]1N[C@@H]12` (some centres unmarked) [Compound 13] the LD50 at 336 h [1] was 26.3 mg/kg, the “(CI)c” value (Sarcoma 180 solid tumour) was 2.01 and the ED50 (Sarcoma 180 solid tumour) was 4.5 mg/kg. For the same compound, the “(ILSmax)c” value [2] was greater than 2.57, the “(TI)c” value [2] was 1.96 and the ED (optimal dose, highest survival) [2] was 7.5 mg/kg. The ED (30% increase of life-span) [2] was 0.33 mg/kg.
With `CO[C@@]12[C@H](COC(N)=O)C3=C(C(=O)C(C)=C(NCCSC(=O)N4CCC[C@H]4C(=O)NCc4ccccc4)C3=O)N1C[C@@H]1N[C@@H]12` [Compound 14, 7-N--[2-((S)--2-benzylaminocarbonylpyrrolidino)-carbonylthioethyl]mitomycin C] the LD50 at 336 h [1] was 75 mg/kg, the “(CI)c” value (Sarcoma 180 solid tumour) was 2.23 and the ED50 (Sarcoma 180 solid tumour) was 13.6 mg/kg. The “(ILSmax)c” value [2] was 1.44, the “(TI)c” value [2] was 0.93 and the ED (optimal dose, highest survival) [2] was 50 mg/kg. The ED (30% increase of life-span) [2] was 3.46 mg/kg.
With `CO[C@@]12[C@H](COC(N)=O)C3=C(C(=O)C(C)=C(NCCSC(=O)NCc4ccccc4)C3=O)N1C[C@@H]1N[C@@H]12` [Compound 22, 7-N--(2-benzylaminocarbonylthioethyl)mitomycin C] the LD50 at 336 h [1] was 37.5 mg/kg, the “(CI)c” value (Sarcoma 180 solid tumour) was 1.44 and the ED50 (Sarcoma 180 solid tumour) was 10.2 mg/kg. For the same compound, the “(ILSmax)c” value [2] was 1.43, the “(TI)c” value [2] was 3.36 and the ED (optimal dose, highest survival) [2] was 25 mg/kg. For the same compound, the ED (30% increase of life-span) [2] was 0.62 mg/kg.
For `CCNC(=O)SCCNC1=C(C)C(=O)C2=C(C1=O)[C@@H](COC(N)=O)[C@@]1(OC)[C@H]3N[C@H]3CN21` [Compound 23, 7-N--(2-ethylaminocarbonylthioethyl)mitomycin C], the LD50 at 336 h [1] was 52.5 mg/kg, the “(CI)c” value (Sarcoma 180 solid tumour) was 2.48 and the ED50 (Sarcoma 180 solid tumour) was 8.3 mg/kg. For the same compound, the “(ILSmax)c” value [2] was 1.16, the “(TI)c” value [2] was 3.28~1.64 and the ED (optimal dose, highest survival) [2] was 25 mg/kg. It also gave an ED (30% increase of life-span) [2] of 0.33 mg/kg.
In the case of `CO[C@@]12[C@H](COC(N)=O)C3=C(C(=O)C(C)=C(NCCSC(=O)NCC(C)C)C3=O)N1C[C@@H]1N[C@@H]12` [Compound 24, 7-N--(2-isobutylaminocarbonylthioethyl)mitomycin C], the LD50 at 336 h [1] is reported as 22.5 mg/kg, the “(CI)c” value (Sarcoma 180 solid tumour) is reported as 0.89 and the ED50 (Sarcoma 180 solid tumour) is reported as 9.9 mg/kg. For the same compound, the “(ILSmax)c” value [2] was 1.26, the “(TI)c” value [2] was 2.16 and the ED (optimal dose, highest survival) [2] was 25 mg/kg. The ED (30% increase of life-span) [2] was 0.5 mg/kg.
In the case of `CCCNC(=O)SCCNC1=C(C)C(=O)C2=C(C1=O)[C@@H](COC(N)=O)[C@@]1(OC)[C@H]3N[C@H]3CN21` [Compound 27, 7-N--(2-n-propylaminocarbonylthioethyl)mitomycin C], the LD50 at 336 h [1] is reported as 37.5 mg/kg, the “(CI)c” value (Sarcoma 180 solid tumour) is reported as 1.33 and the ED50 (Sarcoma 180 solid tumour) is reported as 11.1 mg/kg. For the same compound, the “(ILSmax)c” value [2] was 1.84, the “(TI)c” value [2] was 3.11 and the ED (optimal dose, highest survival) [2] was 25 mg/kg. The ED (30% increase of life-span) [2] was 0.67 mg/kg.
For `CO[C@@]12[C@H](COC(N)=O)C3=C(C(=O)C(C)=C(NCCSC(=O)NC4CCCCC4)C3=O)N1C[C@@H]1N[C@@H]12` [Compound 29, 7-N--(2-cyclohexylaminocarbonylthioethyl)mitomycin C], the LD50 at 336 h [1] was 43.8 mg/kg, the “(CI)c” value (Sarcoma 180 solid tumour) was 1.43 and the ED50 (Sarcoma 180 solid tumour) was 12 mg/kg. For the same compound, the “(ILSmax)c” value [2] was 1.69, the “(TI)c” value [2] was 2.45 and the ED (optimal dose, highest survival) [2] was 25 mg/kg. It also gave an ED (30% increase of life-span) [2] of 0.85 mg/kg.
For `CCC(C)NC(=O)SCCNC1=C(C)C(=O)C2=C(C1=O)[C@@H](COC(N)=O)[C@@]1(OC)[C@H]3N[C@H]3CN21` (some centres unmarked) [Compound 30, 7-N--(2-sec-butylaminocarbonylthioethyl)mitomycin C], the LD50 at 336 h [1] was 37.5 mg/kg, the “(CI)c” value (Sarcoma 180 solid tumour) was 1.53 and the ED50 (Sarcoma 180 solid tumour) was 9.6 mg/kg. The “(ILSmax)c” value [2] was 1.60, the “(TI)c” value [2] was 3.20 and the ED (optimal dose, highest survival) [2] was 25 mg/kg. It also gave an ED (30% increase of life-span) [2] of 0.65 mg/kg.
With `COC(=O)[C@H]1CCCN1C(=O)SCCNC1=C(C)C(=O)C2=C(C1=O)[C@@H](COC(N)=O)[C@@]1(OC)[C@H]3N[C@H]3CN21` [Compound 32, 7-N--[2-((S)--2-methoxycarbonylpyrrolidino)carbonylthioethyl]mitomycin C] the LD50 at 336 h [1] was 67.5 mg/kg, the “(CI)c” value (Sarcoma 180 solid tumour) was 1.48 and the ED50 (Sarcoma 180 solid tumour) was 17.9 mg/kg. For the same compound, the “(ILSmax)c” value [2] was 1.40, the “(TI)c” value [2] was 2.14 and the ED (optimal dose, highest survival) [2] was 37.5 mg/kg. The ED (30% increase of life-span) [2] was 1.67 mg/kg.
With `CCNC(=S)SCCNC1=C(C)C(=O)C2=C(C1=O)[C@@H](COC(N)=O)[C@@]1(OC)[C@H]3N[C@H]3CN21` [Compound 39, 7-N--(2-ethylaminothiocarbonylthioethyl)mitomycin C] the LD50 at 336 h [1] was 45 mg/kg, the “(CI)c” value (Sarcoma 180 solid tumour) was 2.40 and the ED50 (Sarcoma 180 solid tumour) was 7.8 mg/kg. For the same compound, the “(ILSmax)c” value [2] was greater than 1.60, the “(TI)c” value [2] was 2.74 and the ED (optimal dose, highest survival) [2] was 25 mg/kg. For the same compound, the ED (30% increase of life-span) [2] was 0.57 mg/kg.
In the case of `CO[C@@]12[C@H](COC(N)=O)C3=C(C(=O)C(C)=C(N)C3=O)N1C[C@@H]1N[C@@H]12` [mitomycin C], the anti-tumour activity (tumour) is listed as “strong anti-tumour activity” and the “toxicity to bone marrow” value (bone marrow) is listed as “strong toxicity to bone marrow”.
